Data published in patent US20210115521A1, “METHOD FOR INHIBITING TUMOR PROGRESSION OR DETERMINING TUMOR PROGRESSION STATE IN GASTRIC CANCER” (National Tsing Hua University, priority 2019, published 2021).
Residues, ends and D or L forms follow the SMILES beside them. *: point of attachment. Cbz = O=C(OCc1ccccc1)*

Legend:
MKN28 cells = assay: Zebrafish xenotransplantation migration assay, MKN28; assay type: in vivo; conditions: MKN28-injected embryos, immersion in 1 μM at 1 dpi, read at 3 dpi
Protocol: The Tg (fli1: EGFP) zebrafish transgenic strain was purchased from ZIRC (Oregon, USA). […] At two-day post-fertilization, the embryos were dechorionated and subsequently anesthetized with tricaine (0.04 mg/ml). MKN28 or MKN45 cells were labeled with either CFSE or CM-DiI. Two hundred labeled cells (4.6 nl) were injected into the yolk of two-day old embryo using a Nanoject II Auto-Nanoliter Injector (Drummond Science, Broomall, Pa., USA). Later, individual recipients were examined for fluorescent cells 1 and 3 day-post injection by a fluorescence microscopy (Leica).
Next, to evaluate migration behavior using a zebrafish xenotransplantation assay, an efficient in vivo system that utilizes a small number of cells (100 to 200 cells) to accurately monitor cell migratory activity within a couple of days. Cells (pLKO vs. shPHF8) were labeled with carboxyfluorescein succinimidyl ester (CFSE), an amine-reactive green fluorescent dye, and injected into zebrafish embryos. Migration activity was monitored at 1-day postinjection (1 dpi) and 3 dpi by fluorescence microscopy.

MKN45 cells = assay: Zebrafish xenotransplantation migration assay, MKN45; assay type: in vivo; conditions: MKN45-injected embryos, immersion in 1 μM at 1 dpi, read at 3 dpi
Protocol: The Tg (fli1: EGFP) zebrafish transgenic strain was purchased from ZIRC (Oregon, USA). The zebrafish embryos, larvae, and adult fish were maintained in the Taiwan Zebrafish Core Facility @ NHRI. At two-day post-fertilization, the embryos were dechorionated and subsequently anesthetized with tricaine (0.04 mg/ml). MKN28 or MKN45 cells were labeled with either CFSE or CM-DiI. Two hundred labeled cells (4.6 nl) were injected into the yolk of two-day old embryo using a Nanoject II Auto-Nanoliter Injector (Drummond Science, Broomall, Pa., USA). Later, individual recipients were examined for fluorescent cells 1 and 3 day-post injection by a fluorescence microscopy (Leica). […]
Next, to evaluate migration behavior using a zebrafish xenotransplantation assay, an efficient in vivo system that utilizes a small number of cells (100 to 200 cells) to accurately monitor cell migratory activity within a couple of days. […] Migration activity was monitored at 1-day postinjection (1 dpi) and 3 dpi by fluorescence microscopy.
Next, to corroborate this finding using a zebrafish xeno-transplantation model. Cells labeled with Vybrant CM-DiI (CM-Dil) (red fluorescence dye) were injected into the embryos of Tg (fli1: EGFP) (fish with green fluorescence in blood vessels), followed by immersion in solutions containing 1 μM m Midostaurin or Bosutinib (a sublethal dose) at 1 dpi. […]

PTEN [1] = assay: PTEN protein level by Western blotting in MKN28; assay type: cell-based, human; conditions: MG132-treated pLKO MKN28 cells
Description: FIG. 15. Pharmacological inhibition of PHF8-PKCα-Src-PTEN blocks GC progression in vitro and in vivo. […] Data from FIGS. 15B and 15D are presented as the average of three replicates ±SD **P<0.01 (two-tailed Student's t test). Zebrafish xeno-transplantation assays using Mido or Bosu. […] Cyan, blood vessel. […] Total number of embryos used in vehicle, Mido, and Bosu is shown in the bracket. Data were obtained from three independent studies. **P<0.01 (two-tailed Student's t test).
(§1) For immunoblotting assay, PBS-washed cells collected by scraping were directly lysed in RIPA buffer supplemented with protease inhibitor (Santa Cruz) and PhosSTOP (Sigma). Appropriate amounts of protein were separated on SDS-PAGE and then electrotransferred to PVDF membrane (PALL, Protein Washington, N.Y., USA). After the transfer, each membrane was incubated with appropriate primary antibody overnight at 4° C. and then probed with secondary antibodies conjugated with fluorescence. Odyssey Infrared Imaging System (LI-COR Biosciences, Lincoln, Nebr., USA) was utilized to detect the level of fluorescence. For immunoprecipitation assay, cell pellets were lysed in lysis buffer [50 mM Tris-HCl (pH 7.4), 150 mM NaCl, 0.5% NP40)] containing protease inhibitor (Santa Cruz). […]

PTEN [2] = assay: PTEN protein level by Western blotting in MKN45; assay type: cell-based, human; conditions: MG132-treated pLKO MKN45 cells
Protocol: FIG. 16. Pharmacological inhibition of PHF8-PKCα-Src-PTEN blocks GC progression in vitro and in vivo. […] Data form FIGS. 16B and 16D are presented as the average of 3 replicates ±SD. *p<0.05, **p<0.01 (two-tailed Student's t test). Zebrafish xenotransplantation assays using Mido or Bosu. Fluorescence microscopic analysis was conducted at 1 dpi and 3 dpi. […] Cyan, blood vessel. Scale bar, 100 μm. […] Total number of embryos used in vehicle, Mido, Bosu is shown in the bracket. Data were obtained from 3 independent studies. *p<0.05 (two-tailed Student's t test).
as §1

Compound	embryos with migration behavior (dissemination and invasion) (MKN28 cells) [%]	embryos with migration behavior (metastatic activity) (MKN45 cells) [%]	PTEN protein level with MG132 treatment (PTEN [1])	PTEN protein level with MG132 treatment (PTEN [2])
CO[C@@H]1[C@H](N(C)C(=O)c2ccccc2)C[C@H]2O[C@]1(C)n1c3ccccc3c3c4c(c5c6ccccc6n2c5c31)C(=O)NC4 [Midostaurin]	11	13.88	–	–
COc1cc(Nc2c(C#N)cnc3cc(OCCCN4CCN(C)CC4)c(OC)cc23)c(Cl)cc1Cl [Bosutinib]	11.95	18.08	–	–
CC(C)C[C@@H](C=O)NC(=O)[C@H](CC(C)C)NC(=O)[C@H](CC(C)C)NC(=O)OCc1ccccc1 [MG132] (Cbz-Leu-Leu-Leu-aldehyde)	–	–	rescued	rescued
